The values below come from PubChem BioAssay (NCI).

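In this assay, cells in 96-well plates receive the compound at five concentrations for 48 hours. Endpoints are linearly interpolated between the surrounding concentrations. The concentration for full growth arrest is given as TGI.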

Test systems include HCT-116 colon; 786-0 renal; MDA-MB-435; UACC-62 melanoma; MDA-N; SK-OV-3 ovarian; EKVX NSCLC; SNB-75 CNS; OVCAR-8 ovarian; UO-31 renal; K-562 leukemia; SW-620 colon; HOP-62 NSCLC; SK-MEL-2 melanoma; HT29 colon; U251 CNS; HOP-92 NSCLC.
Common to all, as to assay: NCI anticancer screen, dose series, 48 h

As for `CCOC(=O)/C=C(/C(=O)OCC)n1ccc(=O)n(/C(=C/C(=O)OCC)C(=O)OCC)c1=O`, the TGI with HCT-116 colon was determined as 6.88 µM; in the assay on 786-0 renal it was 5.86 µM; in the assay with MDA-MB-435 it was 22.1 µM; with UACC-62 melanoma, 28.3 µM; with MDA-N it was 26.7 µM; with SK-OV-3 ovarian, 43.7 µM. In addition, the TGI was determined as 36 µM in the assay on EKVX NSCLC; 32.6 µM in the assay with SNB-75 CNS; 23.2 µM with OVCAR-8 ovarian; 28.9 µM with UO-31 renal; 10.3 µM with K-562 leukemia; 4.07 µM in the assay on SW-620 colon. For the same molecule, the TGI turned out to be 46.9 µM in the assay on HOP-62 NSCLC; 17.6 µM in the assay on SK-MEL-2 melanoma; 26.8 µM in the assay on HT29 colon; 29.4 µM in the assay on U251 CNS; 4.11 µM in the assay on HOP-92 NSCLC.
`COc1cc(N(CCC#N)CCC#N)ccc1/C(N=Nc1ccccc1)=N/NC(=O)c1cc(Br)ccc1O`: the TGI with HCT-116 colon was 44.1 µM; in the assay with 786-0 renal it was > 100 µM; in the assay on MDA-MB-435 it was > 100 µM; with UACC-62 melanoma, 46.7 µM; in the assay on MDA-N it was > 100 µM; in the assay with SK-OV-3 ovarian, > 100 µM. Also, the TGI with EKVX NSCLC is 69.2 µM; in the assay on SNB-75 CNS it was > 100 µM; in the assay with OVCAR-8 ovarian it was > 100 µM; with UO-31 renal, 57.5 µM; in the assay with K-562 leukemia, 42.7 µM; in the assay with SW-620 colon, > 100 µM. The TGI was 95.5 µM with HOP-62 NSCLC; 85.1 µM with SK-MEL-2 melanoma; 71.4 µM with HT29 colon; > 100 µM in the assay on U251 CNS; 68.6 µM in the assay with HOP-92 NSCLC.
Regarding `Cc1cc(NS(=O)(=O)c2ccc(Nc3c4ccccc4nc4ccc(C(=O)Nc5ccc(S(N)(=O)=O)cc5)cc34)cc2)no1`, the TGI in the assay with HCT-116 colon, with 786-0 renal, in the assay on MDA-MB-435, in the assay with UACC-62 melanoma, in the assay on MDA-N and in the assay on SK-OV-3 ovarian was > 100 µM throughout. Further, the TGI in the assay on EKVX NSCLC, in the assay on SNB-75 CNS, in the assay on OVCAR-8 ovarian, with UO-31 renal, in the assay on K-562 leukemia and in the assay with SW-620 colon was > 100 µM each time. The TGI in the assay on HOP-62 NSCLC, in the assay with SK-MEL-2 melanoma, in the assay on HT29 colon, in the assay with U251 CNS and in the assay on HOP-92 NSCLC was > 100 µM each time.
For `NC(=Nc1ccc(O)cc1)S(=O)O`, the TGI with HCT-116 colon, in the assay on 786-0 renal, in the assay with MDA-MB-435, with UACC-62 melanoma, in the assay on MDA-N and with SK-OV-3 ovarian was > 100 µM throughout. Further, the TGI in the assay with EKVX NSCLC, in the assay on SNB-75 CNS, in the assay with OVCAR-8 ovarian, in the assay with UO-31 renal, in the assay with K-562 leukemia and in the assay on SW-620 colon was > 100 µM in each case. The TGI in the assay on HOP-62 NSCLC, in the assay on SK-MEL-2 melanoma, in the assay on HT29 colon, in the assay with U251 CNS and with HOP-92 NSCLC was > 100 µM throughout.
For `CN(C)C(=O)Oc1ccc(-c2cn3cc(NC(=O)c4ccccc4)ccc3n2)cc1`, the TGI in the assay on HCT-116 colon, with 786-0 renal, with MDA-MB-435, with UACC-62 melanoma, in the assay on MDA-N and with SK-OV-3 ovarian was > 100 µM each time. For the same molecule, the TGI in the assay on EKVX NSCLC, with SNB-75 CNS, in the assay on OVCAR-8 ovarian, in the assay on UO-31 renal, in the assay with K-562 leukemia and in the assay with SW-620 colon was > 100 µM each time. The TGI with HOP-62 NSCLC, in the assay on SK-MEL-2 melanoma, in the assay on HT29 colon, with U251 CNS and in the assay with HOP-92 NSCLC was > 100 µM each time.
As for `O=C(CCN1CCOCC1)Nc1ccc2sc3ccccc3c(=O)c2n1`, the TGI in the assay with HCT-116 colon, in the assay with 786-0 renal, in the assay on MDA-MB-435, in the assay on UACC-62 melanoma, in the assay on MDA-N and in the assay with SK-OV-3 ovarian was > 100 µM each time. The TGI with EKVX NSCLC is > 100 µM; in the assay with SNB-75 CNS, 85.1 µM; in the assay on OVCAR-8 ovarian, > 100 µM; with UO-31 renal, > 100 µM; in the assay with K-562 leukemia it was > 100 µM; in the assay with SW-620 colon, > 100 µM. Further, the TGI in the assay with HOP-62 NSCLC, in the assay on SK-MEL-2 melanoma, in the assay with HT29 colon, in the assay with U251 CNS and in the assay with HOP-92 NSCLC was > 100 µM in each case.
For the molecule `O=C(NC(Nc1ccc(F)c(Cl)c1)(C(F)(F)F)C(F)(F)F)OCc1ccccc1`, the TGI with HCT-116 colon is > 100 µM; with 786-0 renal it was 39.5 µM; in the assay on MDA-MB-435 it was > 100 µM; in the assay on UACC-62 melanoma, > 100 µM; in the assay with MDA-N, 56.2 µM; in the assay with SK-OV-3 ovarian, 74.1 µM. In addition, the TGI in the assay with EKVX NSCLC is 83.6 µM; in the assay with SNB-75 CNS it was > 100 µM; in the assay on OVCAR-8 ovarian, > 100 µM; in the assay on UO-31 renal it was 54.1 µM; in the assay with K-562 leukemia, > 100 µM; with SW-620 colon it was > 100 µM. The TGI in the assay on HOP-62 NSCLC was > 100 µM; in the assay on SK-MEL-2 melanoma, > 100 µM; in the assay on HT29 colon, > 100 µM; in the assay on U251 CNS, > 100 µM; with HOP-92 NSCLC, 95 µM.
`COC(=O)[C@@H]1C[C@H]([Se]c2ccccc2)CN1C(=O)OCc1ccccc1`: the TGI was > 100 µM in the assay with HCT-116 colon; > 100 µM in the assay on 786-0 renal; 65 µM with MDA-MB-435; 35.8 µM in the assay on UACC-62 melanoma; 68.2 µM in the assay on MDA-N; > 100 µM in the assay with SK-OV-3 ovarian. For the same molecule, the TGI in the assay on EKVX NSCLC is > 100 µM; with SNB-75 CNS, > 100 µM; in the assay with OVCAR-8 ovarian it was > 100 µM; with UO-31 renal, 95.3 µM; in the assay on K-562 leukemia, > 100 µM; in the assay on SW-620 colon, > 100 µM. Moreover, the TGI in the assay on HOP-62 NSCLC is > 100 µM; in the assay on SK-MEL-2 melanoma it was 42.2 µM; in the assay on HT29 colon, 70.4 µM; in the assay with U251 CNS, > 100 µM; with HOP-92 NSCLC, > 100 µM.
